Data taken from ChEMBL document CHEMBL1158111, “Bohemamines from a marine-derived Streptomyces sp” (J Nat Prod, 2006).
Active and inactive are the calls of the source. The rule behind the calls is not given here.

The compounds below were run on HCT-116 (assay: Growth inhibition of human HCT116 cells).
Format: functional, cell-based
In the case of `CC(C)=CC(=O)NC1=CC(=O)[C@]2(C)[C@H](O)[C@@H](Cl)[C@H](C)N12`, the Activity is reported as “inactive”.
For `CC(C)=CC(=O)NC1=CC(=O)[C@]2(C)[C@@H]3O[C@@H]3[C@H](C)N12`, the Activity was “inactive”.
In the case of `CC(C)=CC(=O)NC1=CC(=O)[C@]2(C)[C@H](O)C[C@H](C)N12`, the Activity is reported as “inactive”.
With `CC(C)=CC(=O)NC1=CC(=O)[C@]2(C)C[C@H](O)[C@H](C)N12` the Activity was “inactive”.
